Laboratory results reported in patent publication US20060167229A1, “Biologically active peptide conjugates” (priority 2002, published 2006).
Marks after values point to notes of the source that are not given here.

Tests used:
T lymphocyte = T lymphocyte transformation test (ConA-stimulated spleen cells of treated mice, MTT); format: in vivo, BALB/c mice; settings: for X ± SD (stimulation index): healthy mice, saline 1.3 ± 0.1; for effect on T lymphocyte transformation (summary): statistically significant difference from saline in any of the dosage groups 0.5-500 μg/kg/day
Experimental: (§1) The above substances were all dissolved in 0.5 ml saline and injected intraperitoneal (i.p.) for 15 continuous days, once per day.
(§2) Ten mice per group. The day after the last test substance administration, the mice were sacrificed by cervical dislocation. The spleen was isolated aseptically and manually dispersed in cold D-Hank's solution using an injection needle. The dispersed cell suspension was further sieved through a 100 gauge 150 μm diameter stainless steel sieve. After centrifugation at 200 g for 10 minutes, the supernatant was discarded. The cell pellet was re-suspended in 10 volume of Tris-NH4Cl buffer and then kept standing still for 10 minutes at room temperature. The suspended cells were collected by centrifugation at 150 g for 10 minutes. The cells were washed 2-4 times with cold D-Hank's solution by re-suspending and collecting by centrifugation with condition as described above. The washed cells were then diluted to the desired cell densities by RPMI-1640 culture medium, containing 10% fetal bovine serum.
(§3) Spleen cells of density 1×10^6/ml were placed onto a 96 wells cell culture plate, 100 μL/well, three parallel wells each of the assay sample and control sample per mouse. To the assay wells, 100 μl/well ConA of 100 μg/ml in RPMI-1640 was added, and […] plain RPMI-1640 was used for the controls. The cells were incubated for 66 hrs at 37° C., 5% CO2. The cells were then pelleted by centrifugation at 150 g for 10 minutes.
50 μl/well MTT of 1 mg/ml in RPMI-1640 was added to the cell pellet and the cells re-suspended by shaking for 2 minutes. The incubation was continued for 4 hours. The supernatant was discarded after centrifugation at 150 g for 10 minutes. 120 μl 40 mM HCl-2-propanol was added to the cell pellet and shaken for 3 minutes. […]
Each mouse formed three assay wells and three control wells. The Stimulation Index (SI) of each mouse was obtained by first deriving the average OD of the three parallel wells, then dividing the value of the assay wells by the control wells.

anti-SRBC antibody = assay: Sheep Red Blood Cell (SRBC) hemolysis test, antibody formation; format: in vivo, BALB/c mice; settings: for anti-SRBC antibody formation, X ± SD (Unit): healthy mice, SRBC day 12 (IFN-γ, IL-2 3×10^5 IU/kg/day), saline 32 ± 7
Experimental: Sheep red blood cells (SRBC) were prepared by collecting blood from cervical vein and put into a sterile flask with glass beads. The flask was shaken for 3 minutes and the blood then mixed with Alsever solution (glucose 2.05 g, NaCl 0.4 g, […] 0.8 g, adjust to 100 ml with distilled water) and stored at 4° C. Immediately before use, samples were centrifuged at 130 g, 5 minutes to collect the SRBC. The cells were washed two times by re-suspension and centrifugation in normal saline. Then the cell pellet was collected by centrifugation at 180 g for 10 minutes and re-suspended in saline to make the final working SRBC suspension, 2% (v/v).
Complement was prepared by adding 10 volumes of fresh Cavy serum into one volume centrifuge packed SRBC, and then gently shaking for 30 minutes at 4° C. The SRBC was removed by centrifugation at 200 g for 10 minutes. 10 volumes of normal saline were added to obtain the working complement solution.
The test substances were administered as described in section 1.1, plus intraperitoneal injection 0.2 ml SRBC per mouse on day 12. On the day after the last test substance administration (day 16), blood was collected from the eye canthus and left at room temperature for one hour for serum exudation. After centrifugation at 200 g for 10 minutes, the serum was diluted by 500 times with normal saline.
To 1 ml diluted mouse serum of each mouse, 0.5 ml SRBC suspension was added. Ice cold. Then 1 ml working complement solution was added and incubated at 37° C. water bath for 10 minutes. Reactions were terminated by ice cold. Samples were then centrifuged at 200 g for 10 minutes to obtain the supernatant.
To 1 ml of this supernatant, 3 ml Drabkin solution was added and left at room temperature for 10 minutes. OD540 nm was obtained.
Reference OD540 nm was obtained by mixing 0.25 ml SRBC suspension with Drabkin solution to 4 ml and placed at room temperature for 10 minutes before OD540 nm was taken.
Sample serum index=(OD540 nm of test sample÷reference OD540 nm)×500

IL-2 = assay: T lymphocyte IL-2 secretion test (HT-2 cell bioassay of ConA supernatant); format: in vivo, BALB/c mice; settings: for activity of T lymphocyte in secreting IL-2, X ± SD (IU): healthy mice
Experimental: as §3
HT-2 cells at log phase were collected by centrifugation at 150 g for 10 minutes, and washed three times with cold Hank's solution by re-suspension and centrifugation. The collected HT-2 cells were re-suspended in RPMI-1640 and incubated at 37° C., 5% CO2 for 30 minutes. The cells were further washed twice with RPMI-1640 by re-suspension and centrifugation, and re-suspended to final concentration of 2×10^5/ml with RPMI-1640.
rIL-2 was diluted to the following concentration with RPMI-1640: 500 IU/ml, 250 IU/ml, 125 IU/ml, 62.5 IU/ml, 31.25 IU/ml, and […].
The plate was incubated at 37° C., 5% CO2 for 68 hours, then centrifuged at 150 g for 15 minutes and the supernatant removed. 100 μl 0.5 mg/ml MTT in RPMI-1640 without phenolsulfonphthalein was added into each well. After shaking for 3-4 minutes to re-suspend the cells, continue to incubate for another 4 hours. Samples were then centrifuged at 150 g for 15 minutes and the supernatant was removed. To each well, 120 μl 40 mM HCl-2-propanol was added, mixed for 3-4 minutes and OD analyzed at 570 nm, referenced at 630 nm with an ELISA plate reader.
The average OD of the three parallel wells of each dilution was taken and plotted against concentration on a semi-log paper, concentration on the X-axis. The concentration at 50% OD saturation was obtained for both the testing supernatant and rIL-2.

spleen = assay: Immunity organ weight test, spleen index; format: in vivo, BALB/c mice; settings: for weight of spleen (spleen index), X ± SD (%): healthy mice, saline 0.53 ± 0.05; for effect on the weight of the spleen (summary): statistically significant difference from saline in any of the dosage groups 0.5-500 μg/kg/day
Experimental: (§4) One day after the last test substance administration (day 16), the liver, spleen, and thymus gland were separated and blotted dry with filter paper and weighed. The phagocytosis index α was calculated as below: α=(^3√{square root over ( )}K)(W÷WLS)
Spleen index (%)=(spleen weight/body weight)×100%

thymus gland = assay: Immunity organ weight test, thymus gland index; format: in vivo, BALB/c mice; settings: for weight of thymus gland (thymus gland index), X ± SD (%): healthy mice, saline 0.12 ± 0.02; for effect on the weight of the thymus gland (summary): statistically significant difference from saline in any of the dosage groups 0.5-500 μg/kg/day
Experimental: as §4
Thymus gland index (%)=(thymus weight/body weight)×100%

NK cell = NK cell cytotoxicity activity test (spleen cells of treated mice against YAC-1 target cells, MTT); format: in vivo, BALB/c mice; settings: for NK cell cytotoxic activity, X ± SD (%): healthy mice; for effect on the cytotoxic activity of NK cells (summary): statistically significant difference from saline in any of the dosage groups 0.5-500 μg/kg/day
Experimental: as §1, §2
Mice spleen cells were prepared to 4×10^6/ml as described in section 1.1 above. Target cells YAC-1 were brought to log phase and adjusted to 1×10^5/ml. Using a 96 wells cell culture plate, […] were added to the control well containing only the spleen cells; […] and 100 μl culture medium were added to the control well containing only target cells; 100 μl mouse spleen cells and 100 μl target cells were added to the NK activity assay well. Three parallel sets of the above were prepared per mouse.
Samples were centrifuged at 150 g for 10 minutes to collect the cells. The supernatant was discarded and 50 μl/well MTT of 1 mg/ml was added. The reaction-mixture was then shaken for 2 minutes, and incubated at 37° C., 5% CO2 for 4 hours. The supernatant was discarded after centrifugation at 150 g for 10 minutes. […] 40 mM HCl-2-propanol was added and shaken for 3 minutes. An ELISA reader was used to obtain OD570 nm of each well referenced at 630 nm.

interferon (IFN) = test system: interferon (IFN); set-up: species or system BALB/c mice; settings: mouse, in vivo
[1] = peptide 5 μg/kg/day i.p. 15 days (IFN-γ, IL-2 3×10^5 IU/kg/day)
[2] = peptide 500 μg/kg/day i.p. 15 days (IFN-γ, IL-2 3×10^5 IU/kg/day)
[3] = peptide 5 μg/kg/day i.p. 15 days
[4] = peptide 500 μg/kg/day i.p. 15 days
[5] = statistically significant difference from saline in any of the dosage groups 0.5-500 μg/kg/day
[6] = peptide 0.5 μg/kg/day i.p. 15 days
[7] = peptide 50 μg/kg/day i.p. 15 days (IFN-γ, IL-2 3×10^5 IU/kg/day)
[8] = peptide 500 μg/kg/day i.p. 15 days (IFN-γ, IL-2 3×10^5 IU/kg/day), saline 63 ± 9

With “Ala Gly Asp Asp Ala Pro Arg Ala Val Phe (AGDDAPRAVF; listed as Sus scrofa) [CMS007]” the “X ± SD (stimulation index)” value (T lymphocyte; [1]) was 1.7 ± 0.1, the “X ± SD (stimulation index)” value (T lymphocyte; [2]) was 1.6 ± 0.1 and the “effect on T lymphocyte transformation (summary)” value (T lymphocyte) was “enhance”. For the same substance, the “anti-SRBC antibody formation, X ± SD (Unit)” value (anti-SRBC antibody; [3]) was 122 ± 12*^@^ Unit, the “anti-SRBC antibody formation, X ± SD (Unit)” value (anti-SRBC antibody; [4]) was 69 ± 17*^@ Unit and the “effect on the synthesis of anti-SRBC antibody upon the antigenic challenge (summary)” value (anti-SRBC antibody; [5]) was “enhance”. For the same substance, the “activity of T lymphocyte in secreting IL-2, X ± SD (IU)” value (IL-2; peptide 5 μg/kg/day i.p. 15 days (IFN-γ, IL-2 3×10^5 IU/kg/day), saline 37 ± 9) was 64 ± 12 IU, the “activity of T lymphocyte in secreting IL-2, X ± SD (IU)” value (IL-2; peptide 500 μg/kg/day i.p. 15 days (IFN-γ, IL-2 3×10^5 IU/kg/day), saline 39 ± 10) was 86 ± 15*^ IU and the “effect on the secretion of interleukin-2 (IL-2) by T lymphocytes (summary)” value (IL-2; [5]) was “enhance”. For the same substance, the “weight of spleen (spleen index), X ± SD (%)” value (spleen; [4]) was 0.32 ± 0.05 % and the “effect on the weight of the spleen (summary)” value (spleen) was “decrease”.
In the case of “Phe Asn Glu Gln (FNEQ; printed: Phe Asn Glu Gln) [CMS029]”, the “X ± SD (stimulation index)” value (T lymphocyte; [2]) is reported as 1.7 ± 0.3, the “effect on T lymphocyte transformation (summary)” value (T lymphocyte) is reported as “enhance” and the “anti-SRBC antibody formation, X ± SD (Unit)” value (anti-SRBC antibody; [6]) is reported as 18 ± 7 Unit. For the same substance, the “anti-SRBC antibody formation, X ± SD (Unit)” value (anti-SRBC antibody; [3]) was 147 ± 23*^@^ Unit, the “anti-SRBC antibody formation, X ± SD (Unit)” value (anti-SRBC antibody; peptide 50 μg/kg/day i.p. 15 days) was 143 ± 13*^@^ Unit and the “anti-SRBC antibody formation, X ± SD (Unit)” value (anti-SRBC antibody; [4]) was 115 ± 22*^@^ Unit. The “weight of thymus gland (thymus gland index), X ± SD (%)” value (thymus gland; [1]) was 0.21 ± 0.03 %, the “weight of thymus gland (thymus gland index), X ± SD (%)” value (thymus gland; [7]) was 0.18 ± 0.05 % and the “weight of thymus gland (thymus gland index), X ± SD (%)” value (thymus gland; [2]) was 0.22 ± 0.04*^@^ %. The “effect on the weight of the thymus gland (summary)” value (thymus gland) was “increase”, the “weight of spleen (spleen index), X ± SD (%)” value (spleen; Table 28, peptide 5 μg/kg/day (so in the source) i.p. 15 days (IFN-γ, IL-2 3×10^5 IU/kg/day)) was 0.42 ± 0.04 % and the “effect on the weight of the spleen (summary)” value (spleen) was “decrease”. For the same substance, the “NK cell cytotoxic activity, X ± SD (%)” value (NK cell; [8]) was 87 ± 4 % and the “effect on the cytotoxic activity of NK cells (summary)” value (NK cell) was “increase”.
In the case of “Phe Gln Pro Ser Phe (FQPSF; printed: Phe Gln Pro Ser Phe) [CMS028]”, the “anti-SRBC antibody formation, X ± SD (Unit)” value (anti-SRBC antibody; [6]) is reported as 18 ± 5 Unit, the “anti-SRBC antibody formation, X ± SD (Unit)” value (anti-SRBC antibody; [3]) is reported as 121 ± 48*^@^ Unit and the “weight of thymus gland (thymus gland index), X ± SD (%)” value (thymus gland; peptide 0.5 μg/kg/day i.p. 15 days (IFN-γ, IL-2 3×10^5 IU/kg/day)) is reported as 0.20 ± 0.06 %. For the same substance, the “weight of thymus gland (thymus gland index), X ± SD (%)” value (thymus gland; [1]) was 0.28 ± 0.06*^@^ %, the “weight of thymus gland (thymus gland index), X ± SD (%)” value (thymus gland; [7]) was 0.18 ± 0.04 % and the “weight of thymus gland (thymus gland index), X ± SD (%)” value (thymus gland; [2]) was 0.19 ± 0.02 %. For the same substance, the “effect on the weight of the thymus gland (summary)” value (thymus gland) was “increase”, the “NK cell cytotoxic activity, X ± SD (%)” value (NK cell; peptide 0.5 μg/kg/day i.p. 15 days (IFN-γ, IL-2 3×10^5 IU/kg/day), saline 58 ± 7) was 79 ± 3 % and the “NK cell cytotoxic activity, X ± SD (%)” value (NK cell; [8]) was 90 ± 5 %. For the same substance, the “effect on the cytotoxic activity of NK cells (summary)” value (NK cell) was “increase”, the “effect on the secretion of IFN by T lymphocytes (summary)” value (interferon (IFN)) was “enhance” and the “activity of T lymphocyte in secreting IFN, X ± SD (IU)” value (interferon (IFN); ip) was 96 ± 13 IU.
